Experimental data published in patent publication US20030216416A1, “Novel crystalline of n-[4-[2-(2-amino-4,7-dihydro-4oxo-3h-pyrrolo[2,3-d]pyrimidin-5-yl)ethyl]benzoyl]-l-glutamic acid and process therefor” (priority 2002, published 2003).
Each block holds one molecule with its values, some of them ahead of it.

What was measured:
[1] = Stability study: solvents (water) content of crystalline form lots on storage
[2] = Stability study: total related substances of crystalline form lots on storage
[3] = accelerated conditions 30° C., 0 months
[4] = accelerated conditions 30° C., 1 month
[5] = accelerated conditions 30° C., 2 months
[6] = accelerated conditions 30° C., 3 months
[7] = accelerated conditions 30° C., 6 months
[8] = stored at 5° C., 0 months, lots A-C water and ethanol, lot D water only
[9] = 2.5 hydrate lots stored at 5° C.
[10] = heptahydrate lot stored at 5° C.
[11] = heptahydrate lot, 25° C./60% relative humidity and room temperature/uncontrolled humidity
[12] = accelerated conditions 25° C., 60% relative humidity

Solvents Results [1, 3]: 11.0% of Total
Solvents Results [1, 4]: 15.5% of Total
Solvents Results [1, 5]: 12.9% of Total
Solvents Results [1, 6]: 11.5% of Total
Solvents Results [1, 7]: 11.2% of Total
Solvents Results [1, 8]: 11.0% of Total
Solvents Results ([1]; stored at 5° C., 3 months): 21.0% of Total
Solvents Results ([1]; stored at 5° C., 6 months): 21.1% of Total
Solvents Results ([1]; stored at 5° C., 12 months): 21.0% of Total
change in the percent total related substances over time [2, 9]: did not change significantly over time
change in the percent total related substances over time ([2]; accelerated conditions 30° C.): did change significantly over time
Total Related Substances Results [2, 3]: 0.4% of Total
Total Related Substances Results [2, 4]: 0.4% of Total
Total Related Substances Results [2, 5]: 0.7% of Total
Total Related Substances Results [2, 6]: 0.6% of Total
Total Related Substances Results [2, 7]: 1.2% of Total
Total Related Substances Results ([2]; stored at 5° C., 0 months): 0.4% of Total
Total Related Substances Results ([2]; stored at 5° C., 3 months): 0.3% of Total
Total Related Substances Results ([2]; stored at 5° C., 6 months): 0.5% of Total
Total Related Substances Results ([2]; stored at 5° C., 12 months): 0.4% of Total
SMILES: Nc1nc2[nH]cc(CCc3ccc(C(=O)N[C@@H](CCC(=O)O)C(=O)O)cc3)c2c(=O)[nH]1 [Lot B, pemetrexed disodium]

Solvents Results [1, 3]: 10.2% of Total
Solvents Results [1, 4]: 10.9% of Total
Solvents Results [1, 5]: 10.6% of Total
Solvents Results [1, 6]: 10.7% of Total
Solvents Results [1, 7]: 9.3% of Total
Solvents Results [1, 8]: 10.2% of Total
Solvents Results ([1]; stored at 5° C., 3 months): 22.0% of Total
Solvents Results ([1]; stored at 5° C., 6 months): 21.1% of Total
Solvents Results ([1]; stored at 5° C., 12 months): 21.5% of Total
Solvents Results ([1]; stored at 5° C., 18 months): 22.3% of Total
Solvents Results ([1]; stored at 5° C., 24 months): 21.1% of Total
change in the percent total related substances over time [2, 9]: did not change significantly over time
change in the percent total related substances over time ([2]; accelerated conditions 30° C.): did change significantly over time
Total Related Substances Results [2, 3]: 0.24% of Total
Total Related Substances Results [2, 4]: 0.35% of Total
Total Related Substances Results [2, 5]: 0.41% of Total
Total Related Substances Results [2, 6]: 0.6% of Total
Total Related Substances Results [2, 7]: 1.1% of Total
Total Related Substances Results ([2]; stored at 5° C., 0 months): 0.24% of Total
Total Related Substances Results ([2]; stored at 5° C., 3 months): 0.26% of Total
Total Related Substances Results ([2]; stored at 5° C., 6 months): 0.27% of Total
Total Related Substances Results ([2]; stored at 5° C., 12 months): 0.28% of Total
Total Related Substances Results ([2]; stored at 5° C., 18 months): 0.4% of Total
Total Related Substances Results ([2]; stored at 5° C., 24 months): 0.4% of Total
SMILES: Nc1nc2[nH]cc(CCc3ccc(C(=O)N[C@@H](CCC(=O)O)C(=O)O)cc3)c2c(=O)[nH]1 [Lot A, pemetrexed disodium]

Solvents (Water) Results ([1]; 5° C., time 0): 21.0%
Solvents (Water) Results ([1]; 5° C., time 0.5): 21.0%
Solvents (Water) Results ([1]; 5° C., time 1): 20.6%
Solvents (Water) Results ([1]; 5° C., time 2): 21.1%
Solvents (Water) Results ([1]; 5° C., time 3): 21.3%
Solvents (Water) Results ([1]; 5° C., time 6): 21.1%
Solvents (Water) Results ([1]; 5° C., time 9): 21.1%
Solvents (Water) Results ([1]; 5° C., time 12): 21.9%
Solvents (Water) Results ([1]; 25° C./60% RH, time 0): 21.0%
Solvents (Water) Results ([1]; 25° C./60% RH, time 0.25): 21.1%
Solvents (Water) Results ([1]; 25° C./60% RH, time 0.5): 21.1%
Solvents (Water) Results ([1]; 25° C./60% RH, time 0.75): 20.1%
Solvents (Water) Results ([1]; 25° C./60% RH, time 1): 20.1%
Solvents (Water) Results ([1]; 25° C./60% RH, time 3): 20.7%
Solvents (Water) Results ([1]; 25° C./60% RH, time 6): 21.3%
Solvents (Water) Results ([1]; 25° C./60% RH, time 12): 21.7%
Solvents (Water) Results ([1]; RT/uncontrolled RH, time 0): 21.0%
Solvents (Water) Results ([1]; RT/uncontrolled RH, time 0.25): 21.3%
Solvents (Water) Results ([1]; RT/uncontrolled RH, time 0.5): 20.8%
Solvents (Water) Results ([1]; RT/uncontrolled RH, time 0.75): 20.6%
Solvents (Water) Results ([1]; RT/uncontrolled RH, time 1): 20.6%
Solvents (Water) Results ([1]; RT/uncontrolled RH, time 2): 21.1%
Solvents (Water) Results ([1]; RT/uncontrolled RH, time 3): 21.1%
change in water content over time [1, 10]: does not change significantly over time
water content [1, 10]: approximately 21%
change in water content over time [1, 11]: does not change significantly over time
water content [1, 11]: approximately 21%
Total Related Substances Results ([2]; 5 C., 0 mo.): 0.41%
Total Related Substances Results ([2]; 5 C., 0.5 mo.): 0.42%
Total Related Substances Results ([2]; 5 C., 1 mo.): 0.43%
Total Related Substances Results ([2]; 5 C., 2 mo.): 0.45%
Total Related Substances Results ([2]; 5 C., 3 mo.): 0.42%
Total Related Substances Results ([2]; 5 C., 6 mo.): 0.42%
Total Related Substances Results ([2]; 5 C., 9 mo.): 0.40%
Total Related Substances Results ([2]; 5 C., 12 mo.): 0.42%
Total Related Substances Results ([2]; 25 C./60% RH, 0 mo.): 0.41%
Total Related Substances Results ([2]; 25 C./60% RH, 0.25 mo.): 0.40%
Total Related Substances Results ([2]; 25 C./60% RH, 0.5 mo.): 0.44%
Total Related Substances Results ([2]; 25 C./60% RH, 0.75 mo.): 0.39%
Total Related Substances Results ([2]; 25 C./60% RH, 1 mo.): 0.43%
Total Related Substances Results ([2]; 25 C./60% RH, 3 mo.): 0.42%
Total Related Substances Results ([2]; 25 C./60% RH, 6 mo.): 0.42%
Total Related Substances Results ([2]; 25 C./60% RH, 12 mo.): 0.39%
Total Related Substances Results ([2]; RT/uncontrolled, 0 mo.): 0.41%
Total Related Substances Results ([2]; RT/uncontrolled, 0.25 mo.): 0.40%
Total Related Substances Results ([2]; RT/uncontrolled, 0.5 mo.): 0.43%
Total Related Substances Results ([2]; RT/uncontrolled, 0.75 mo.): 0.41%
Total Related Substances Results ([2]; RT/uncontrolled, 1 mo.): 0.43%
Total Related Substances Results ([2]; RT/uncontrolled, 2 mo.): 0.44%
Total Related Substances Results ([2]; RT/uncontrolled, 3 mo.): 0.42%
change in the percent total related substances over time [2, 10]: did not change significantly over time
change in the percent total related substances over time ([2]; heptahydrate lot stored at accelerated conditions): did not change significantly over time
SMILES: Nc1nc2[nH]cc(CCc3ccc(C(=O)N[C@@H](CCC(=O)[O-])C(=O)[O-])cc3)c2c(=O)[nH]1.[Na+].[Na+] [Heptahydrate Lot, disodium N-[4-[2-(2-amino-4,7-dihydro-4-oxo-3H-pyrrolo[2,3-d]-pyrimidin-5-yl)ethyl]benzoyl]-L-glutamic acid salt]

Solvents Results ([1]; accelerated conditions 25° C., 60% relative humidity, 0 months, water only): 8.5% of Total
Solvents Results ([1]; accelerated conditions 25° C., 60% relative humidity, 1 month, water only): 14.0% of Total
Solvents Results ([1]; accelerated conditions 25° C., 60% relative humidity, 2 months, water only): 20.5% of Total
Solvents Results ([1]; accelerated conditions 25° C., 60% relative humidity, 3 months, water only): 20.8% of Total
Solvents Results ([1]; accelerated conditions 25° C., 60% relative humidity, 6 months, water only): 21.2% of Total
Solvents Results [1, 8]: 8.5% of Total
Solvents Results ([1]; stored at 5° C., 3 months): 14.0% of Total
Solvents Results ([1]; stored at 5° C., 6 months): 18.2% of Total
Solvents Results ([1]; stored at 5° C., 9 months): 21.1% of Total
Solvents Results ([1]; stored at 5° C., 12 months): 21.7% of Total
change in the percent total related substances over time [2, 9]: did not change significantly over time
change in the percent total related substances over time [2, 12]: did not increase somewhat over time
Total Related Substances Results ([2]; accelerated conditions 25° C., 60% relative humidity, 0 months): 0.31% of Total
Total Related Substances Results ([2]; accelerated conditions 25° C., 60% relative humidity, 1 month): 0.31% of Total
Total Related Substances Results ([2]; accelerated conditions 25° C., 60% relative humidity, 2 months): 0.45% of Total
Total Related Substances Results ([2]; accelerated conditions 25° C., 60% relative humidity, 3 months): 0.40% of Total
Total Related Substances Results ([2]; accelerated conditions 25° C., 60% relative humidity, 6 months): 0.32% of Total
Total Related Substances Results ([2]; stored at 5° C., 0 months): 0.31% of Total
Total Related Substances Results ([2]; stored at 5° C., 3 months): 0.35% of Total
Total Related Substances Results ([2]; stored at 5° C., 6 months): 0.33% of Total
Total Related Substances Results ([2]; stored at 5° C., 9 months): 0.42% of Total
Total Related Substances Results ([2]; stored at 5° C., 12 months): 0.24% of Total
SMILES: Nc1nc2[nH]cc(CCc3ccc(C(=O)N[C@@H](CCC(=O)O)C(=O)O)cc3)c2c(=O)[nH]1 [Lot D, pemetrexed disodium]
change in water content over time [1, 12]: shows an increase in water content to the heptahydrate form

Solvents Results [1, 3]: 8.8% of Total
Solvents Results [1, 4]: 20.6% of Total
Solvents Results [1, 5]: 19.3% of Total
Solvents Results [1, 6]: 17.2% of Total
Solvents Results [1, 7]: 8.9% of Total
Solvents Results [1, 8]: 8.8% of Total
Solvents Results ([1]; stored at 5° C., 3 months): 16.7% of Total
Solvents Results ([1]; stored at 5° C., 6 months): 8.8% of Total
Solvents Results ([1]; stored at 5° C., 12 months): 21.0% of Total
Solvents Results ([1]; stored at 5° C., 18 months): 20.8% of Total
Solvents Results ([1]; stored at 5° C., 24 months): 20.4% of Total
change in the percent total related substances over time [2, 9]: did increase somewhat over time
change in the percent total related substances over time ([2]; accelerated conditions 30° C.): did change significantly over time
Total Related Substances Results [2, 3]: 0.38% of Total
Total Related Substances Results [2, 4]: 0.6% of Total
Total Related Substances Results [2, 5]: 0.76% of Total
Total Related Substances Results [2, 6]: 0.79% of Total
Total Related Substances Results [2, 7]: 1.33% of Total
Total Related Substances Results ([2]; stored at 5° C., 0 months): 0.38% of Total
Total Related Substances Results ([2]; stored at 5° C., 3 months): 0.79% of Total
Total Related Substances Results ([2]; stored at 5° C., 6 months): 0.79% of Total
Total Related Substances Results ([2]; stored at 5° C., 12 months): 0.51% of Total
Total Related Substances Results ([2]; stored at 5° C., 18 months): 0.43% of Total
Total Related Substances Results ([2]; stored at 5° C., 24 months): 0.44% of Total
SMILES: Nc1nc2[nH]cc(CCc3ccc(C(=O)N[C@@H](CCC(=O)O)C(=O)O)cc3)c2c(=O)[nH]1 [Lot C, pemetrexed disodium]
